For one test, the system named is U‐87MG. Kind of test: Cell death, PI staining and FACS. As to conditions: anti‐TfR antibodies (1 : 250) 2 h, then peptide 5 μM 3 h, n = 2 (Fig. 3C). It is filed as cell-based. On the procedure:
Leukemia cells, U‐937, MEC‐1 cells (4 × 10^5 or 8 × 10^5 cells/sample, respectively), as well as other leukemia or suspension cell lines, were incubated in 200 μL serum‐free medium with various concentrations of the peptide for 90 min at 23–25 °C, collected by centrifugation (500 g, 5 min), washed with PBS, and analyzed for cell death. Adherent cells (6 × 10^5 mL^−1 at 70–80% confluence) were incubated with the peptide of interest in 500 μL serum‐free recommended culture medium for 3–6 h at 37 °C and 5% CO2. The cells were then trypsinized, centrifuged (1500 g, 5 min), washed with PBS, and analyzed for the desired activity. Following peptide treatment, cells were subjected to cell death analysis. […] PRO software (BD Biosciences, San Jose, CA, USA).
For each line, cells were incubated with different peptide concentrations, and cell death was determined by PI staining and FACS analysis (Figs 1, 2, 3).

Another test has as its system HeLa cells. As to the kind of experiment: Cellular ATP levels, luciferase‐based assay (CellTiter‐Glo). It is filed as cell-based, human. As to conditions: 3 h, percentage of control, mean ± SE (n = 3) (Fig. 4F). As for the experimental part: Cellular ATP levels were estimated using a luciferase‐based assay (CellTiter‐Glo; Promega). […] ATP levels were assayed according to the manufacturer's protocol, and luminescence was recorded using an Infinite M1000 plate reader (Tecan, Männedorf, Switzerland).

The target of the next test is T1, HK‐I (Homo sapiens, UniProt P19367).
T1 construct: His; made in house; host or cells: Escherichia coli BL21
T1 sequence (P19367 1-917): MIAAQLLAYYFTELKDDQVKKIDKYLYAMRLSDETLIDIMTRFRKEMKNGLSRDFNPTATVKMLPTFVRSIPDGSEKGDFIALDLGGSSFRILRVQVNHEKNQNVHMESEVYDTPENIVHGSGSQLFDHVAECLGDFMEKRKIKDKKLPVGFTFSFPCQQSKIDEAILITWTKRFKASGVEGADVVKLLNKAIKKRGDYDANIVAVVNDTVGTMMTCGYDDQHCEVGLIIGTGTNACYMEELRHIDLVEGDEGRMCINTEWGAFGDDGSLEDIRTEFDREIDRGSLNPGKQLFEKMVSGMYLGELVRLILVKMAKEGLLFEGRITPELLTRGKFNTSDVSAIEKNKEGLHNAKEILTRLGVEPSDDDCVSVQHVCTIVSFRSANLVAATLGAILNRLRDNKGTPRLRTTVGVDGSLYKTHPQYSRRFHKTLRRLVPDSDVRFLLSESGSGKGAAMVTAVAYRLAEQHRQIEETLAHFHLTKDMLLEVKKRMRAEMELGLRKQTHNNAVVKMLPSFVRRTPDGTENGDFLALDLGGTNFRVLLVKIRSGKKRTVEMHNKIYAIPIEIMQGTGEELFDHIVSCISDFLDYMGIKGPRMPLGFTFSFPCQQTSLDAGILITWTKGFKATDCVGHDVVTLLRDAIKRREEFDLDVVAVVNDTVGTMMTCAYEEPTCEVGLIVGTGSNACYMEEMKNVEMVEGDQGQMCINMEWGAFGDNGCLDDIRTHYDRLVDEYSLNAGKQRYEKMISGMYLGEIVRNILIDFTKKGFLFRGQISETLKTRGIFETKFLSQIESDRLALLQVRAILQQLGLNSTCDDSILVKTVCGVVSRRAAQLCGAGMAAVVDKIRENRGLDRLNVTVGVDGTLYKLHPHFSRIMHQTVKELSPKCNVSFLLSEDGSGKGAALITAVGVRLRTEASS
Kind of test: HK activity assay with purified recombinant HK‐I. It is filed as biochemical. As to conditions: HK‐I 13 µg/ml pre‐incubated with peptide; 1 mM ATP, G6PDH‐coupled, absorbance at 340 nm (Fig. S3B). On the procedure:
Human HK‐I and HK‐II were cloned into plasmid pET‐His DNA and expressed in Escherichia coli BL21 upon IPTG induction. HK was purified from lysed cells using a HiTrap nickel column (GE Healthcare). Following dialysis, the imidazole‐eluted protein was further purified using a Blue HiTrap column (GE Healthcare). HK was eluted using 10 mM glucose, 20 mM Tris/HCl (pH 8.5), 20% glycerol, and 1.5 mM glucose‐6‐phosphate. Fractions were analyzed by SDS/PAGE and tested for HK activity. The purified active fractions were combined and stored in aliquots at −80 °C.
Change in absorbance at 340 nm (NADH production) was spectrophotometrically measured following addition of 1 mM ATP and 0.05 unit·mL^−1 glucose‐6‐phosphate dehydrogenase.
Purified HK-I (13 µg/ml) was pre-incubated with the indicated concentrations of Tf-D-LP4 (●) or R-Tf-D-LP4 (○) and assayed for HK activity as described in Materials and Methods. Change in absorbance at 340 nm (NADH production) was spectrophotometrically measured following addition of 1 mM ATP, and 0.05 unit/ml glucose-6-phosphate dehydrogenase. C. Tf-D-LP4 and R-Tf-D-LP4 solubility. The peptides were dissolved to a final concentration of 5 mM in 5% DMSO and diluted to 1.1 mM in HBSS. Peptide absorbance in the supernatant was measured at 280 nm following centrifugation at 12,000g before and after 75 min incubation at 24 °C. […] Cell death was analyzed using PI and FACS analysis. […]

Test [1] concerns A549 cells (HK‐I in cytosolic fraction). As to the kind of experiment: Mitochondria‐bound HK detachment, cell fractionation and immunoblotting. As to conditions: A549, peptide 3, 5, 10 μM, 3 h; digitonin […]; immunoblot (Fig. 4E). Format: cell-based, human. As for the experimental part: Peptide‐induced HK detachment from mitochondria to the cytosol was also analyzed by immunoblotting. […] Samples were centrifuged at 12 000 g at 4 °C for 10 min, and the obtained supernatants (cytosolic fraction) and pellets (mitochondria) were analyzed by immunoblotting using anti‐HK‐I, anti‐VDAC1, and anti‐GAPDH antibodies, and then with secondary HRP‐conjugated antibodies.
For orientation: A western blot detects proteins with antibodies after separation by electrophoresis.

The next test concerns A549 cells. As to the kind of experiment: Apoptosis, acridine orange/ethidium bromide staining. It is filed as cell-based, human. As to conditions: A549, 3 h; quantitation, mean ± SE (n = 3) (Fig. 5E). On the procedure:
For PI and annexin V–FITC staining, A549 or MDA‐MB‐231 cells, untreated or treated with VDAC1‐based peptides, were collected (1500 g for 5 min), washed, and resuspended in 200 μL binding buffer (10 mM HEPES/NaOH (pH 7.4), 140 mM NaCl, and 2.5 mM CaCl2). Annexin V–FITC staining was performed according to the recommended protocol. Cells were then washed once with binding buffer and resuspended in 200 μL binding buffer, to which PI was added immediately before flow cytometric analysis. At least 10 000 events were collected, recorded on a dot plot, and analyzed by flow cytometer. Acridine orange/ethidium bromide staining was carried as described previously (Zaid et al., 2005), with cells visualized by fluorescence microscopy (Olympus LX2‐KSP, Tokyo, Japan), and images were captured with a CCD camera. About 200 cells were counted for each experiment.

SMILES strings stand for the structures.

For the compound `CC[C@H](C)[C@H](NC(=O)[C@H](C)NC(=O)[C@@H](N)Cc1c[nH]cn1)C(=O)N[C@@H](Cc1ccc(O)cc1)C(=O)N1CCC[C@H]1C(=O)N[C@@H](CCCNC(=N)N)C(=O)N[C@@H](Cc1c[nH]cn1)C(=O)N[C@H](CO)C(=O)N[C@H](Cc1c[nH]c2ccccc12)C(=O)N[C@@H](C(=O)N[C@H](Cc1c[nH]c2ccccc12)C(=O)N[C@H](CCC(=O)O)C(=O)N[C@H](CCCCN)C(=O)N[C@H](CCCCN)C(=O)N[C@H](CC(C)C)C(=O)N[C@H](CCC(=O)O)C(=O)N[C@@H](C(=O)N[C@H](C)C(=O)N[C@@H](C(=O)N[C@H](CC(N)=O)C(=O)N[C@H](CC(C)C)C(=O)N[C@H](C)C(=O)N[C@H](Cc1c[nH]c2ccccc12)C(=O)N[C@@H](C(=O)N[C@H](C)C(=O)NCC(=O)N[C@H](CC(N)=O)C(=O)N[C@H](CO)C(=O)N[C@H](CC(N)=O)C(=O)N[C@H](CCCCN)C(=O)N[C@H](Cc1c[nH]c2ccccc12)C(=O)N[C@@H](C(=O)N[C@H](Cc1c[nH]c2ccccc12)C(=O)N[C@H](CCCCN)C(=O)O)[C@H](C)O)[C@H](C)O)C(C)C)[C@H](C)O)[C@H](C)O` [Tf‐D‐LP4], the “decrease in peptide‐induced cell death in anti‐TfR antibody‐treated cells” value with U‐87MG is “about twofold”. Further, the “decrease of cellular ATP levels” value in the test on HeLa cells was “about 40%”. Moreover, the “inhibition of purified HK‐I activity” value at HK‐I was “but not Tf-D-LP4 inhibits HK-I activity”. Besides, the “increase in HK in the cytosolic fraction” value in test [1] is listed as “about twofold”. Moreover, the “apoptotic cell death (acridine orange/ethidium bromide)” value with A549 cells is listed as “over 70%”.

Values taken from PMC6026870, “Selective induction of cancer cell death by VDAC1‐based peptides and their potential use in cancer therapy” (Molecular Oncology, 2018).
